Assay: Compatibility of antimicrobial agent with sterilization procedures
Assay type: physicochemical
Conditions: comparison of Tables II and III
From the text: Optionally, in embodiments of the present invention, the potential agent can be tested for its compatibility with one or more sterilization procedures. This optional screening procedure can also be performed by mixing an appropriate amount of the agent with a desired amount of the monomer composition and any other desired additives, and then subjecting the resultant composition to one or more sterilization procedures. Compatibility of the agent with one or more sterilization procedures is preferred in embodiments of the present invention because many uses of the polymerizable monomer compositions, such as many medical applications, require or prefer sterilized products. Following sterilization, the agent can exert antimicrobial action in killing or preventing growth of microbes that may be introduced into the pre-sterilized monomer compositions.

Cc1ccc(C(C)C)c(O)c1 [thymol]
Compatibility with forms of sterilization: more compatible with one form of sterilization than it is with another form of sterilization

Source: patent US6579469B1, “Cyanoacrylate solutions containing preservatives” (priority 1999, dated 2003)
